# Measurements as given in US5183828A, “Polyhydroxybenzoic acid derivatives” (priority 1990, dated 1993).
# Where a name gives a salt, the structure may show the parent alone.
# Columns and labels:
# [1] = system: L1210 leukemia; test: antitumor activity in L1210 leukemia (percent increase in survival time), Table 2; format: in vivo, mice; details: 8 days; for ILS at 100 mg/kg: 100 mg/kg ip daily; for ILS at 200 mg/kg: 200 mg/kg ip daily
# Experimental: Testing of the compounds of this invention against L-1210 lymphoid leukemia were carried out as follows: L-1210 leukemia was maintained by weekly passage of 10^5 L-1210 cells intraperitoneally into DBA/2 mice. Diluted ascitic fluid, 0.1 ml. (10^5 cells), was administered ip to female B6D2 F1 mice weighing about 20 g. Drugs were administered ip 24 hours after tumor transplantation and injections were continued daily for a total of eight days. A group of control mice receiving only the injection medium were maintained. Table 2 which follows gives the antitumor activity against L-1210 leukemia for certain compounds of this invention. In the table, column 1 gives the name of the compound, column 2 the dose in mg./kg., and column 3 the percent increase in survival time over controls at each dose level.
# [2] = free radical scavenging ability (destruction of diphenylpicrylhydrazyl), Table 7; details: 100 μM diphenylpicrylhydrazyl in acetone; test compound 25 μM, 2.5 μM (footnote)
# Source text: It is believed that the antineoplastic activity of the compounds of this invention is due in parts to their ability to scavenge free-radicals. Additionally, the compounds of this invention are cancer protective agents and this utility also may be a manifestation of their free-radical scavenging capability. Free-radical scavenging agents may also be useful in detoxifying mammals in whom an excess of free radicals is a cause and/or result of the toxicity. Other possible uses of free radical scavengers are to inhibit protaglandin transformation, leucotriene interconversion and lipogenesis, to act as inflammatory modulators and as food additive or preservatives to prevent lipid oxidation. The free radical scavenging ability of the compounds of the invention was determined by measuring the destruction of the stable free radical, diphenylpicrylhydrazyl, in the presence of the test compound in a manner similar to that reported by […] and Herzmann, Naturwiss, 47, 133-134 (1960). […] The test compound was added at a final concentration of 25 μM and the rate of reduction of absorpotion at […] was observed. Table 7 below gives the free radical scavenging abilities of the compounds of this invention expresses as the initial rate of decrease in optical density units/min.
# [3] = target: ribonucleotide reductase; test: ribonucleotide reductase inhibition (conversion of CDP to dCDP), Table 1; format: biochemical; details: enzyme partially purified from HeLa cells or Ehrlich ascites cells; 40 min, 30° C; read-out: ID50 (inhibitory dose which inhibits ribonucleotide reductase by 50%)
# Source text: Compounds represented by formula I above have the ability to inhibit ribonucleotide reductase, an enzyme involved in the reductive conversion of ribonucleotides to deoxyribonucleotides. This enzymatic reaction is a rate controlling step in the biosynthetic pathway leading to DNA and cell replication. In general, the ribonucleotide reductase level is closely correlated with cellular replication. […] In addition, the compounds have shown activity against P388 leukemia and B16 melanoma.
# The results of biological tests of compounds according to formula I are incorporated in a series of Tables which follow. Table 1 gives ribonucleotide reductase data for representative compounds of formula I. In the table, column 1 gives the substitution pattern in the benzene- ring, column 2, the (CHR")m group, column 3, the [drawing 5] group, and column 4, the ID50 (inhibitory dose in micromolar concentration which inhibits ribonucleotide reductase by 50%) in μmoles.
# In the above determination of ID50 's in Table 1, ribonucleotide reductase is partially purified from HeLa cells or Ehrlich ascites cells by a procedure similar to that set forth by Elford et al. J. Biol. Chem., 245, 5228 (1970). The activity of the enzyme was measured by a slightly modified assay procedure originally developed by Reichard et al. id, 236, 1150 (1969). This procedure measures the conversion of CDP to dCDP. The assay mixture (0.34 ml.) contains 3 μCi of [^3 H] CDP (specific activity […]), 3.3 μmole ATP, 5.9 μmoles magnesium chloride, 8.8 μmoles Hepes buffer at pH=7.5, 15 μmoles dithiothreitol and enzyme protein between 0.4 and 1.3 mg. Incubation was provided for forty minutes at 30° C. Ion exchange chromatography employing Dowex 50 (H^+) resin is used to separate the product from the substrate. The inhibitors were dissolved in water and a mixture of water and up to 1% ethanol or 2% dimethylsulfoxide, neither one of which inhibited the enzyme at these concentrations. Each inhibitor was tested at a minimum of three concentrations and the active compounds reassayed at least one additional time. ID50 's (μmolar) were estimate from graphs summarizing results for each compound.
# [4] = system: L1210; test: antileukemia activity of nitriles vs L1210, Table 8; format: in vivo
# Source text: Table 8 which follows gives anti-tumor data vs L-1210 and P-388 leukemia for these novel nitriles.
# [5] = system: superoxide (xanthine oxidase reaction or human leukocytes); test: effect on superoxide generation in vitro; format: biochemical
# Experimental: The rate of production of superoxide from the xanthine oxidase reaction or from human leukocytes activated with phorbol myristate acetate was measured spectrophotometrically as the superoxide dismutase (SOD)-inhibitable portion of the reduction of ferricytochrome c or nitroblue tetrazolium (NBT). All assays were carried out at 37° C., pH 7.1. For the superoxide production by the xanthine oxidase reaction, a concentration of 0.04 U/ml of xanthine oxidase was used with 0.1 mM xanthine as substrate. Absorbances were measured in the presence of 30 U/ml of SOD and in its absence. The indicators were either ferricytochrome c or NBT in a concentration of 20 uM. The initial rate of reduction of NBT was monitored at 530 nm and that of cytochrome c at 550 nm. Extinction coefficients were 21.4×10 ^3 /M cm for cytochrome c and 17.9×10^3 /M cm for NBT. The initial rate of production of superoxide from leukocytes was measured using a concentration of 20 uM ferricytochrome c or NBT as described above in the presence and absence of 30 U/ml of SOD.
# [6] = Mus musculus, L1210, 192 h, 300 mg/kg ip daily
molecule,measurement,setting,value
"CCOC(=N)c1ccc(O)c(O)c1 [ethyl 3,4-dihydroxybenzamidate-HCl, ethyl 3,4-dihydroxybenzamidate hydrochloride]",% Increase in Survival Time,[1]; 218 mg/kg ip daily,toxic
same,% Increase in Survival Time,[1]; 327 mg/kg ip daily,toxic
same,% Increase in Survival Time,[1]; 435 mg/kg ip daily,toxic
same,initial rate of decrease in optical density (518 nm),[2],0.706 units/min.
ON=C(NO)c1ccc(O)c(O)c1 [drawing 11],IC50,[3],40 µM
NC(=NO)c1ccc(O)c(O)c1O [drawing 17],IC50,[3],7 µM
"NC(=NO)c1ccc(O)c(O)c1O [2,3,4-trihydroxybenzamidoxime-HCl, 2,3,4-trihydroxybenzamidoxime]",% Increase in Survival Time,[1]; 300 mg/kg ip daily,toxic
same,ILS at 100 mg/kg,"[1]; Mus musculus, L1210, 192 h",38.9%
same,ILS at 200 mg/kg,"[1]; Mus musculus, L1210, 192 h",36.1%
same,ILS at 218 mg/kg,"[1]; Mus musculus, L1210, 192 h, 218 mg/kg ip daily",67.7%
NC(=NO)c1ccc(O)c(O)c1 [drawing 8],IC50,[3],8 µM
N=C(N)c1cc(O)c(O)c(O)c1 [drawing 14],IC50,[3],25 µM
"N#Cc1cc(O)c(O)c(O)c1O [2,3,4,5-tetrahydroxybenzonitrile]",% Increase in Survival Time,[4]; 163 mg/kg,48.4%
same,% Increase in Survival Time,[4]; 230 mg/kg,Toxic
"ON=C(NO)c1ccc(O)c(O)c1 [3,4-dihydroxybenzohydroxyamidoxime-HCl, 3,4-Dihydroxybenzohydroxyamidoxime hydrochloride]",ILS at 155 mg/kg,"[1]; Mus musculus, L1210, 192 h, 155 mg/kg ip daily",39%
same,ILS at 200 mg/kg,"[1]; Mus musculus, L1210, 192 h",47.8%
same,ILS at 300 mg/kg,[1]; [6],41.3%
"ON=C(NO)c1cc(O)c(O)c(O)c1 [3,4,5-trihydroxybenzohydroxyamidoxime-HCl]",ILS at 100 mg/kg,"[1]; Mus musculus, L1210, 192 h",47.2%
same,ILS at 200 mg/kg,"[1]; Mus musculus, L1210, 192 h",55.6%
same,ILS at 300 mg/kg,[1]; [6],63.9%
same,initial rate of decrease in optical density (518 nm),[2],0.882 units/min.
"N#Cc1ccc(O)c(O)c1O [2,3,4-trihydroxybenzonitrile]",% Increase in Survival Time,[4]; 50 mg/kg,11.0%
same,% Increase in Survival Time,[4]; 100 mg/kg,26.0%
same,% Increase in Survival Time,[4]; 155 mg/kg,12.1%
same,% Increase in Survival Time,[4]; 259 mg/kg,Toxic
same,% Increase in Survival Time,[4]; 327 mg/kg,Toxic
NC(=NO)c1cccc(O)c1O,IC50,[3],18 µM
N=C(N)c1ccc(O)c(O)c1 [drawing 10],IC50,[3],20 µM
"Cl.NC(=NO)c1cccc(O)c1O [2,3-dihydroxybenzamidoxime-HCl]",% Increase in Survival Time,[1]; 300 mg/kg ip daily,toxic
"3,4,5-TRIHYDROXYBENZAMIDATE",Cytochrome C Reduction,[5]; 10 uM compound,4.89 nmol
same,NBT Reduction,[5]; 10 uM compound,7.60 nmol
same,Cytochrome C Reduction,[5]; 20 uM compound,3.21 nmol
same,NBT Reduction,[5]; 20 uM compound,6.10 nmol
same,Cytochrome C Reduction,[5]; 50 uM compound,2.22 nmol
same,NBT Reduction,[5]; 50 uM compound,3.67 nmol
same,Cytochrome C Reduction,[5]; 100 uM compound,1.91 nmol
same,NBT Reduction,[5]; 100 uM compound,1.78 nmol
same,NBT Reduction,[5]; 200 uM compound,1.45 nmol
same,NBT Reduction,[5]; 500 uM compound,1.23 nmol
ON=C(NO)c1cc(O)c(O)c(O)c1 [drawing 16],IC50,[3],25 µM
"N#Cc1ccc(O)c(O)c1 [3,4-dihydroxybenzonitrile]",% Increase in Survival Time,[4]; 47.6 mg/kg,4.7%
same,% Increase in Survival Time,[4]; 95.2 mg/kg,15.6%
same,% Increase in Survival Time,[4]; 196 mg/kg,Toxic
"NC(=NO)C(O)c1ccc(O)c(O)c1.O (stereo not shown) [3,4-dihydroxymandelamidoxime, 3,4-dihydroxymandelamidoxime monohydrate]",ILS at 435 mg/kg,"[1]; Mus musculus, L1210, 192 h, 435 mg/kg ip daily",45.2%
same,ILS at 606 mg/kg,"[1]; Mus musculus, L1210, 192 h, 606 mg/kg ip daily",45.2%
same,initial rate of decrease in optical density (518 nm),[2],0.383 units/min.
N#Cc1c(O)c(O)c(O)c(O)c1O [pentahydroxybenzonitrile],% Increase in Survival Time,[4]; 34.3 mg/kg,14.2%
same,% Increase in Survival Time,[4]; 51.5 mg/kg,0%
same,% Increase in Survival Time,[4]; 77.2 mg/kg,Toxic
same,% Increase in Survival Time,[4]; 116.0 mg/kg,Toxic
CCOC(=N)c1cc(O)c(O)c(O)c1 [drawing 13],IC50,[3],15 µM
CCOC(=N)c1ccc(O)c(O)c1 [drawing 9],IC50,[3],12 µM
NC(=NO)c1cc(O)c(O)c(O)c1 [drawing 12],IC50,[3],5 µM
"Cl.N=C(N)c1ccc(O)c(O)c1 [3,4-dihydroxybenzamidine-HCl]",ILS at 52 mg/kg,"[1]; Mus musculus, L1210, 192 h, 52 mg/kg ip daily",26.8%
same,ILS at 100 mg/kg,"[1]; Mus musculus, L1210, 192 h",58.3%
same,ILS at 104 mg/kg,"[1]; Mus musculus, L1210, 192 h, 104 mg/kg ip daily",34.1%
same,ILS at 200 mg/kg,"[1]; Mus musculus, L1210, 192 h",41.7%
same,ILS at 300 mg/kg,[1]; [6],47.2%
same,ILS at 400 mg/kg,"[1]; Mus musculus, L1210, 192 h, 400 mg/kg ip daily",47.8%
same,ILS at 603 mg/kg,"[1]; Mus musculus, L1210, 192 h, 603 mg/kg ip daily",83%
same,initial rate of decrease in optical density (518 nm),[2],1.721 units/min.
